According to patent US20250177357A1, “METHODS FOR TREATING HYPERTROPHIC CARDIOMYOPATHY” (priority 2021, published 2025):
Values joined by “and” are separate entries in the source; they are usually repeats but may differ in a detail not shown here. Equal values may be shown once.

Test system: healthy adults
Test: Phase 1 pharmacodynamics by echocardiography (LVEF), SAD and MAD cohorts
Type: in vivo, human
Protocol: Echocardiography. For PD assessments of LVEF, echocardiograms for the SAD and MAD cohorts were interpreted by the echocardiography core laboratory and used for all data analysis and dose level review decisions while immediate local interpretation of the echocardiograms was performed for safety monitoring. […] Echocardiograms on day 3 (48 h after dosing) were obtained only if the 24 h LVEF had not returned to near or above baseline, as determined by the investigator. In the MAD cohorts, echocardiograms were obtained on day −1, pre-dose on day 1, and at 1.5 h post dose on days 2, 4, and 9, and at 1.5, 24, and 72 h post dose on day 14 (for the 5-mg and 10-mg cohorts) or on day 17 (for the 7.5-mg cohort). Echocardiograms were obtained 3 days after the last dose (on day 17 or 20) only if the participant's prior LVEF was not near or above baseline, as determined by the investigator.
All participants who received ≥1 dose of study drug and had ≥1 pre-dose and ≥1 post-dose echocardiographic measurement were included in the PD analysis set. […] Descriptive statistics of the echocardiographic parameters were generated using SAS® Version 9.3 or higher.
Dose-response analysis was performed using analysis of covariance (ANCOVA) to identify the least-squares mean difference (aficamten minus placebo). To analyze the impact of drug dose on echocardiographic parameters in the SAD and MAD cohorts, an inferential analysis was conducted on the PD analysis set using linear mixed models for repeated-measures analysis of covariance (ANCOVA). The ANCOVA used baseline value as a covariate, included treatment, time-point, and time-point-by-treatment interaction as fixed effects, and change from baseline as the dependent variable. The unstructured variance-covariance structure was used, and the model accounted for the time-point repeated measures. The ANCOVA analysis was conducted separately for each study part and for each PD parameter. The least-squares means, the difference in least squares means (active minus placebo), and the associated 2-sided 95% CIs were presented for each comparison.
Analyses of concentration ‘bin’ and exposure-response were also performed using ANCOVA. SAS® PROC MIXED was used for all comparative analyses. […] A concentration bin ANCOVA was conducted using linear mixed models for repeated-measures analyses with concentration bin group as a fixed effect, baseline PD parameters as a covariate, change from baseline as the dependent variable, and a random intercept to adjust for the repeated measures. The unstructured variance-covariance structure was used. […] The ANCOVA compared the change in PD parameters between each bin versus the pooled placebo group. The least-squares means, the difference in least squares means (bin group minus placebo), and the associated 2-sided 95% CIs were presented for each comparison. The ANCOVA analysis was conducted separately for each study part. For all time-points at which both PK data and PD measures were available, the time-points were pooled for the analysis. […] From least to greatest, the data were then divided into 5 groups of observations (‘bins’), each consisting of 20% of the data points. Each bin was treated as a separate group.
The above analysis was then repeated using concentration as a continuous variable to estimate the exposure-response trend. Both a random intercept effect and a random concentration effect were added to the ANCOVA. The estimate of the concentration slope, with corresponding 2-sided 95% CIs, and the ANCOVA analyses were presented for each study part.
For all time-points at which both PK data and PD measures were available, the time points were pooled for the analysis. A nominal significance level of 5% was used for statistical comparisons, without adjustment for multiplicity.

[1] = SAD 50 mg (n = 11), […] post dose

CCc1nc(-c2ccc3c(c2)CC[C@H]3NC(=O)c2cnn(C)c2)no1 [aficamten, (R)—N-(5-(5-ethyl-1,2,4-oxadiazol-3-yl)-2,3-dihydro-1H-inden-1-yl)-1-methyl-1H-pyrazole-4-carboxamide]
Participants with absolute reductions in LVEF of ≥10% from baseline (10-mg MAD cohort): 33%
Participants with absolute reduction in LVEF ≥5% from baseline (MAD 7.5 mg once daily, 1 of 6): 17%
Participants with absolute reduction in LVEF ≥5% from baseline (MAD 10 mg once daily, 2 of 6): 33%
Number of participants with reduction in LVEF ≥10% (MAD 10-mg cohort): 2
Plasma aficamten concentrations with minimal suppression of LVEF in most participants (MAD cohorts): ≤ 180 ng/mL
A, mean change from baseline [1]: 2.5 cm/s
E, mean change from baseline [1]: -2.7 cm/s
LV ET, mean change from baseline [1]: 1.9 ms
Participants with absolute reduction in LVEF ≥5% from baseline (SAD 1-, 10-, or 25-mg cohorts): no participants
Participants with absolute reduction in LVEF ≥5% from baseline (SAD 3-mg cohort, 1 of 6): 17%
Participants with absolute reduction in LVEF ≥10% (SAD 40-mg cohort, 1 of 6): 17%
Participants with absolute reduction in LVEF ≥5% from baseline (SAD 40-mg cohort, 2 of 6): 33%
Participants with reduction in LVEF to <50% (SAD 50-mg cohort, 2 of 11): 18%
Participants with absolute reduction in LVEF ≥5% from baseline (SAD 50-mg cohort, 7 of 11): 64%
LVEF of the individual participants with LVEF <50% (SAD 50-mg cohort, core laboratory assessment): 48.2% and 45.5%
Participants with absolute reduction in LVEF ≥5% from baseline (SAD 75-mg cohort, 1 of 1): 100%
Participants with reduction in LVEF to <50% (SAD 75-mg cohort, 1 of 1): 100%
Participants with absolute reduction in LVEF ≥10% (SAD 75-mg cohort, 1 participant): 100%
Reduction in LVEF to <50% (any MAD cohort, core laboratory assessment): not observed
Time within which decreases in LVEF to <50% were reversible (following single doses): ≤ 6 h
Decrease in mean LVEF from baseline, least-squares mean difference vs placebo (single 50-mg dose, […] post dose, p=0.0001): 5.5%
LVEF reached by 1 participant (single dose of 75 mg, approximately […] after dosing): 34.1%
